Experiment [1] has as its target T1, human GPCR sphingosine 1-phosphate receptor 2 (S1PR2) (Homo sapiens, UniProt O95136).
T1 construct: host or cells: CHO
Put plainly: S1P2 antagonist assay (Ca2+ flux, S1P at EC80). The class given is cell-based. Conditions: CHO-S1PR2 cells, highest concentration 20 μM. The essentials: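 CHO cells stably overexpressing human S1PR2, serum-starved 1 h and loaded with Fluo8 dye, were read for 3 min after compound addition, then stimulated with S1P at EC80 after 15 min at 37 °C. Top concentration 20 μM in a 10-point 1/3 series; Ca2+ fluorescence ratio normalized to vehicle and S1P EC80, giving EC50.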
A general note: Calcium assays in cells follow changes in intracellular calcium, usually with a dye or a luminescent sensor.

The target in experiment [2] is T2, human GPCR sphingosine 1-phosphate receptor 1 (S1PR1) (Homo sapiens, UniProt P21453).
T2 construct: host or cells: CHO
T2 sequence (P21453 whole entry): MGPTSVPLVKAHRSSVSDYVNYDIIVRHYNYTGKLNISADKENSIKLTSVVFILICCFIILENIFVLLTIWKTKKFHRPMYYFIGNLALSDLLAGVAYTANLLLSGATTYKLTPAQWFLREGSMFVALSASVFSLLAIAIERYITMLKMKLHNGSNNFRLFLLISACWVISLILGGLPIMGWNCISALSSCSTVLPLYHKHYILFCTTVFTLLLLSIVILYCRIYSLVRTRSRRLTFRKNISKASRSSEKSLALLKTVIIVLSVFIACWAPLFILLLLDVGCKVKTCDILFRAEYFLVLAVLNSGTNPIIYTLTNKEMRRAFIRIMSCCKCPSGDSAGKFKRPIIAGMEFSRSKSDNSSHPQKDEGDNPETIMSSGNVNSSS
As to the kind of experiment: S1PR1 selectivity assay (Ca2+ flux, antagonist). In kind it is cell-based. The settings on record: S1P1 antagonist EC50, CHO cells overexpressing human S1PR1 and Gq protein. The method, boiled down: (§1)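 CHO cells stably overexpressing human S1PR1 or S1PR5 with Gq were preincubated with compound 15 min at 37 °C, then stimulated with S1P at EC80 (S1PR1) or an S1PR5-specific agonist (S1PR5). Ca2+ fluorescence was read for 3 min; 10-point 1/3 dilutions from 20 μM final, normalized to vehicle and EC80 trigger, gave EC50.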

The target in experiment [3] is T3, human GPCR sphingosine 1-phosphate receptor 5 (S1PR5) (Homo sapiens, UniProt Q9H228).
T3 construct: host or cells: CHO
T3 sequence (Q9H228 whole entry): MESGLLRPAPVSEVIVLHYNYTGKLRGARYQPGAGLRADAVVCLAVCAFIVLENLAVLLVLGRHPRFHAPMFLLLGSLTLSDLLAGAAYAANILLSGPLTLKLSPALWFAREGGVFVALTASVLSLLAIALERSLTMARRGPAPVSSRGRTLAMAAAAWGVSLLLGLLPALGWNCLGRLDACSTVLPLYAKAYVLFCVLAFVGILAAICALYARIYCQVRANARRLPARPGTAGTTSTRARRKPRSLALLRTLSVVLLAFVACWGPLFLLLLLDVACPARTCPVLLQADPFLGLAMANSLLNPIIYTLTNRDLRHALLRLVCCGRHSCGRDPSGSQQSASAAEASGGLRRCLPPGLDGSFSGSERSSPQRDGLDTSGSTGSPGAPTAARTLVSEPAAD
Put plainly: S1PR5 selectivity assay (Ca2+ flux, antagonist, S1PR5 specific agonist trigger). The settings on record: S1P5 antagonist EC50, CHO cells overexpressing human S1PR5 and Gq protein. The class given is cell-based. The essentials:
as §1

Experiment [4] concerns the target T4, S1PR2 (Homo sapiens, UniProt O95136).
T4 construct: expressed in transfected cells
Put plainly: GTP-γS binding assay ([35S]GTPγS, S1P at EC80, S1PR2 membranes). In kind it is biochemical. Conditions: membranes from stable cell line over expressing S1PR2, read-out: S1PR2 EC. The essentials:
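Compounds tested against S1P at its EC80 on membranes (2.5 μg/well) from a stable S1PR2-overexpressing line, pre-incubated with 1 μM GDP 15 min at 4 °C. Buffer: 20 mM Tris pH 7.5, 10 mM MgCl2, 100 mM NaCl, 0.1% fatty-acid-free BSA, 50 ug/ml saponin. Incubated 4 h at room temperature; [35S]GTPγS binding read by WGA SPA beads.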

The test system of experiment [5] is HFL-1 cells. As to the kind of experiment: IL8 assay (S1P induced IL-8 production). The class given is cell-based. The settings on record: Homo sapiens, HFL1; S1P (1 μM) induced IL-8, HFL-1 cells, without HSA. The procedure:
(§2) S1P is able to induce cytokines such as IL-8 in a process that is S1PR2 dependent (O'Sullivan et al, 2014; Bruennert et al, 2015). This assay is designed to test inhibitory activity of compounds on S1P induced IL-8 on HFL-1 cells, a human fetal lung fibroblast cell line.
Human Fetal Lung cells (HFL-1) are seeded in 96 well plates in growth medium (F12K+10% heat inactivated FBS+1% Pen/strep). After overnight incubation at 37° C., 5% CO2 cells are refreshed with starvation medium without HSA (F12K+1% FBS+1% Pen/strep). On day three, compounds are added (10 point serial dilution, 30 μM highest concentration, ⅓ dilution, 0.3% DMSO final) and plates are incubated for one hour at 37° C., 5% CO2. Subsequently S1P at 1 μM final concentration is added and plates are incubated for 16 to 24 hours at 37° C., 5% CO2 after which the supernatant was collected. IL-8 levels in the supernatant are determined with the IL-8 ELISA of R&D systems.

Experiment [6] deals with HFL-1 cells. Put plainly: IL8 assay in the presence of Human Serum Albumin. The settings on record: HFL1, S1P (5 μM) induced IL-8, HFL-1 cells, with 2% HSA, read-out: HSA IL8 EC50. The class given is cell-based. As for the experimental part:
as §2
To evaluate the influence of plasma protein binding of Sip as well as compound, the S1P induced IL-8 levels were evaluated in presence of 2% Human Serum Albumin (HSA, equivalent to 40% human serum). By adding 2% HSA, which affects both the activity of the compounds as well as the S1P potency, the physiological condition are reproduced and the shift in potency expected under in vivo serum conditions can be measured.
Human Fetal Lung cells (HFL-1) are seeded in 96 well plates in growth medium (F12K+10% heat inactivated FBS+1% Pen/strep). After overnight incubation at 37° C., 5% CO2 cells are refreshed with starvation medium with HSA (F12K+1% FBS+1% Pen/strep+1.95% HSA). On day three, compounds are added (10 point serial dilution, 30 μM highest concentration, 1/3 dilution, 0.3% DMSO final) and plates are incubated for 1 h at 37° C., 5% CO2. Subsequently S1P at 5 μM final concentration is added and plates are incubated for 16 to 24 h at 37° C., 5% CO2 after which the supernatant was collected. IL-8 levels in the supernatant are determined with the IL-8 ELISA of R&D systems.

Bounds are passed on as bounds.

T4 sequence (O95136 whole entry): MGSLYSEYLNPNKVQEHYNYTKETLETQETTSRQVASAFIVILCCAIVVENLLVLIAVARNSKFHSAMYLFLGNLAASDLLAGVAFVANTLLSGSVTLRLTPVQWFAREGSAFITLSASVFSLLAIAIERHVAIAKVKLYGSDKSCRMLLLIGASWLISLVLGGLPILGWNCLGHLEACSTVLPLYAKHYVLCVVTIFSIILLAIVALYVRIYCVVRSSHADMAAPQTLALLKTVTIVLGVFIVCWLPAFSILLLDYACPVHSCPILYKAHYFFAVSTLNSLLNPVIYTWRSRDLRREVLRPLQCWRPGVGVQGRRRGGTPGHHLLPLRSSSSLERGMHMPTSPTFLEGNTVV
T1 sequence (O95136 whole entry): as above

As to `Cc1cc(CNC(=O)Nc2cc(OCC(O)CO)nc(C(F)(F)F)c2)nnc1-c1cn(C)nc1C(F)(F)F` (stereo not drawn) [Compound 5, 1-[2-(2,3-dihydroxypropoxy)-6-(trifluoromethyl)-4-pyridyl]-3-[[5-methyl-6-[1-methyl-3-(trifluoromethyl)pyrazol-4-yl]pyridazin-3-yl]methyl]urea], the EC50 is 6610 nM in experiment [1]; at least 19800 nM in experiment [2]; at least 19800 nM in experiment [3]; 11100 nM in experiment [4]; 1540 nM in experiment [5]. Besides, the IC50 in experiment [6] was found to be 9950 nM.
Take `Cc1cc(CNC(=O)Nc2cc(C(F)(F)F)nc(OCCO)c2C)nnc1-c1cn(C)nc1C(F)(F)F` [Compound 73, 1-[2-(2-hydroxyethoxy)-3-methyl-6-(trifluoromethyl)-4-pyridyl]-3-[[5-methyl-6-[1-methyl-3-(trifluoromethyl)pyrazol-4-yl]pyridazin-3-yl]methyl]urea]: the EC50 in experiment [1] is 84 nM; in experiment [2] it was at least 19800 nM; in experiment [4] it was 160 nM; in experiment [5] it was 51 nM. Further, the IC50 in experiment [6] is 256 nM.
With `Cc1cc(CNC(=O)Nc2cc(OCC3CC(F)(F)C3)nc(C(F)(F)F)c2)nnc1-c1cn(C)nc1C(F)(F)F` [Compound 42, 1-[2-[(3,3-difluorocyclo-butyl)methoxy]-6-(trifluoromethyl)-4-pyridyl]-3-[[5-methyl-6-[1-methyl-3-(trifluoromethyl)pyrazol-4-yl]pyridazin-3-yl]methyl]urea], the EC50 in experiment [1] was determined as 292 nM; in experiment [4] it was 604 nM; in experiment [5], 50.9 nM. In addition, the IC50 in experiment [6] worked out at 1240 nM.
As for `CCOc1cc(NC(=O)NCc2cc(C)c(-c3cn(CC(C)O)nc3C(F)(F)F)nn2)cc(C(F)(F)F)n1` (stereo not drawn) [Compound 56, 1-[2-ethoxy-6-(trifluoromethyl)-4-pyridyl]-3-[[6-[1-(2-hydroxypropyl)-3-(trifluoromethyl)pyrazol-4-yl]5-methyl-pyridazin-3-yl]methyl]urea], the EC50 in experiment [1] worked out at 11.2 nM; in experiment [4], 129 nM; in experiment [5], 4.6 nM. Further, the IC50 in experiment [6] worked out at 98.5 nM.
On to `Cc1cc(CNC(=O)Nc2cc(Cl)nc(Cl)c2)nnc1-c1cn(C)nc1C(F)(F)F` [Compound 21, 1-(2,6-dichloro-4-pyridyl)-3-[[5-methyl-6-[1-methyl-3-(trifluoromethyl)pyrazol-4-yl]pyridazin-3-yl]methyl]urea], for which the EC50 in experiment [1] was 17.3 nM; in experiment [4] it was 136 nM; in experiment [5] it was 11.3 nM. Moreover, the IC50 in experiment [6] is 393 nM.
For the compound `Cc1cc(CNC(=O)Nc2cc(Cl)nc(OCC(F)F)c2)nnc1N1CCOC(CN(C)C)C1` (stereo not drawn) [Compound 97, 1-[2-chloro-6-(2,2-difluoroethoxy)-4-pyridyl]-3-[[6-[2-[(dimethylamino)methyl]morpholin-4-yl]-5-methyl-pyridazin-3-yl]methyl]urea], the EC50 was found to be 81 nM in experiment [1], 274 nM in experiment [4] and 62 nM in experiment [5]. The IC50 in experiment [6] is 1800 nM.
As for `CCOc1nc(C)cc(NC(=O)NCc2cc(C)c(-c3cn(C)nc3C(F)(F)F)nn2)c1C#N` [Compound 77, 1-(3-cyano-2-ethoxy-6-methyl-4-pyridyl)-3-[[5-methyl-6-[1-methyl-3-(trifluoromethyl)pyrazol-4-yl]pyridazin-3-yl]methyl]urea], the figures for the EC50 in experiment [4] and in experiment [5] were 20000 nM and 2740 nM, respectively. Besides, the IC50 in experiment [6] was 29900 nM.
In the case of `CCOc1cc(NC(=O)NCc2cc(C)c(-c3cn(C)nc3C)nn2)cc(Cl)n1` [Compound 68], the EC50 was 25.4 nM in experiment [1], at least 19800 nM in experiment [2], 111 nM in experiment [4] and 153 nM in experiment [5]. For the same compound, in experiment [6], the IC50 came to 3460 nM.
As to `CCOc1ncc(NC(=O)NCc2cc(C)c(N3CC(C)OC(C)C3)nn2)cc1C(F)(F)F` (stereo not drawn) [Compound 85, 1-[[6-(2,6-dimethyl-morpholin-4-yl)-5-methyl-pyridazin-3-yl]methyl]-3-[6-ethoxy-5-(trifluoromethyl)-3-pyridyl]urca], the EC50 in experiment [1] was determined as 487 nM; in experiment [4], 3560 nM; in experiment [5] it was 427 nM. Moreover, the IC50 in experiment [6] is 9950 nM.
For the compound `CCOc1nc(C)cc(NC(=O)NCc2cc(C)c(N3C[C@@H](C)O[C@@H](C)C3)nn2)c1Cl` [Compound 94, 1-(3-chloro-2-ethoxy-6-methyl-4-pyridyl)-3-[[6-[(2R,6S)-2,6-dimethyl-morpholin-4-yl]-5-methyl-pyridazin-3-yl]methyl]urea], the EC50 was 27 nM in experiment [1], 479 nM in experiment [3], 509 nM in experiment [4] and 102 nM in experiment [5]. In addition, in experiment [6], the IC50 was 5950 nM.
In the same order, the values of `CCOc1cc(NC(=O)NCc2cc(C)c(N3C[C@@H](C)O[C@@H](C)C3)nn2)cc(C)n1` [Compound 93, 1-[[6-[(2R,6S)-2,6-dimethyl-morpholin-4-yl]-5-methyl-pyridazin-3-yl]methyl]-3-(2-ethoxy-6-methyl-4-pyridyl)urca] are 1050 nM, 6610 nM, 2170 nM, 753 nM and 2200 nM.
`CCOc1cc(NC(=O)NCc2nnc(-c3cn(C)nc3C(F)(F)F)c(C)c2C)cc(C(F)(F)F)n1` [Compound 66, 1-[[4,5-dimethyl-6-[1-methyl-3-(trifluoromethyl)pyrazol-4-yl]pyridazin-3-yl]methyl]-3-[2-ethoxy-6-(trifluoromethyl)-4-pyridyl]urea]: the EC50 in experiment [1] came to 4250 nM; in experiment [5], 996 nM. Moreover, in experiment [6], the IC50 came out at 29900 nM.
As to `Cc1cc(CNC(=O)Nc2cc(OCC(=O)N(C)C)nc(C(F)(F)F)c2)nnc1-c1cn(C)nc1C(F)(F)F` [Compound 67, N,N-dimethyl-2-[[4-[[5-methyl-6-[1-methyl-3-(trifluoromethyl)pyrazol-4-yl]pyridazin-3-yl]methyl-carbamoyla-mino]-6-(trifluoromethyl)-2-pyridyl]oxy]acetamide], the EC50 in experiment [4] came out at 28700 nM; in experiment [5], 2180 nM. Moreover, the IC50 in experiment [6] stood at 9950 nM.
With `CCOc1cc(NC(=O)NCc2cc(C)c(N3CC(F)(F)C3)nn2)cc(Cl)n1` [Compound 83, 1-(2-Chloro-6-ethoxy-pyridin-4-yl)-3-[6-(3,3-difluoro-azetidin-1-yl)-5-methyl-pyridazin-3-ylmethyl]-urea], the EC50 amounted to 11 nM in experiment [1], 160 nM in experiment [4] and 66 nM in experiment [5]. The IC50 in experiment [6] stood at 30000 nM.
In the same order, the values of `Cc1cc(CNC(=O)Nc2cc(Cl)nc(OCCF)c2)nnc1-c1cn(C)nc1C(F)(F)F` [Compound 16, 1-[2-chloro-6-(2-fluoroethoxy)-4-pyridyl]-3-[[5-methyl-6-[1-methyl-3-(trifluoromethyl)pyrazol-4-yl]pyridazin-3-yl]methyl]urea] are 10.8 nM, 62.9 nM, 4.6 nM and 74.9 nM.
